Laboratory results taken from patent US9901584B2, “Methods of cosmetically treating skin conditions with a cosmetic personal cleansing composition” (The Procter & Gamble Company, priority 2015, dated 2018).

Tested on: Unhealthy Skin Signature
Details: normal human keratinocytes, various doses of zinc pyrithione, 6-24 hours

zinc pyrithione
Linkage to Unhealthy Skin Signature gene expression pattern: negative linkage
